Results on 19 compounds are retold here after US20220378923A1, “BET DEGRADER” (KYOWA KIRIN CO., LTD., priority 2019, published 2022).

Where two headings read alike, the source gives them in different places.

The test system of the assay is SU-DHL-4 cells. The experiment in a line: Inhibitory effect on cell viability in SU-DHL-4 cell line (Test Example 1). It is filed as cell-based, human. The following applies: SU-DHL-4 cells, 72 hours, Cell Counting Kit-8, concentration showing 90% inhibition of cell viability, read-out: SU-DHL-4 Cell Viability Inhibition Rate IC90. A digest of the protocol:
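SU-DHL-4 cells were grown at 37° C. under 5% CO2 in RPMI1640 with 10 vol % heat-inactivated FBS plus penicillin/streptomycin, seeded and precultured for 18 to 25 hours, then exposed to test compound at 0.1 vol % DMSO for 72 hours. Viability was read with Cell Counting Kit-8 by absorbance at 450 nm.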
For orientation: Formazan colour is commonly taken as a measure of viable cells.

What is called IC90 is the concentration needed for an effect of 90%. Turning to `CCC(=O)N1c2ccccc2[C@H](Nc2ccc(-n3cc(CNC(=O)C4CCC(N[C@@H]5C[C@H](C)N(C(=O)CC)c6ccccc65)CC4)nn3)cc2)C[C@@H]1C` (relative stereo) [Compound 8l, (1R,4R)-4-(((2S*,4R*)-2-Methyl-1-propionyl-1,2,3,4-tetrahydroquinolin-4-yl)amino)-N-((1-(4-(((2S,4R)-2-methyl-1-propionyl-1,2,3,4-tetrahydroquinolin-4-yl)amino)phenyl)-1H-1,2,3-triazol-4-yl)methyl)cyclohexane-1-carboxamide], the IC90 came to 0.04 nM. As to `CCC(=O)N1c2ccccc2[C@H](Nc2ccc(CNCc3cn(-c4ccc(N[C@@H]5C[C@H](C)N(C(=O)CC)c6ccccc65)nc4)nn3)cc2)C[C@@H]1C` [Compound 17e, 1-((2S,4R)-2-Methyl-4-((4-((((1-(6-(((2S,4R)-2-methyl-1-propionyl-1,2,3,4-tetrahydroquinolin-4-yl)amino)pyridin-3-yl)-1H-1,2,3-triazol-4-yl)methyl)amino)methyl)phenyl)amino)-3,4-dihydroquinolin-1(2H)-yl)propan-1-one], the IC90 (Homo sapiens) was 1.82 nM. For `CCC(=O)N1c2ccccc2[C@H](Nc2ccc(C(=O)NCCCNC(=O)C3CCC(N[C@@H]4C[C@H](C)N(C(=O)CC)c5ccccc54)CC3)cc2)C[C@@H]1C` (relative stereo) [Compound 7m, 4-(((2S,4R)-2-Methyl-1-propionyl-1,2,3,4-tetrahydroquinolin-4-yl)amino)-N-(3-((1R,4r)-4-(((2S*,4R*)-2-methyl-1-propionyl-1,2,3,4-tetrahydroquinolin-4-yl)amino)cyclohexane-1-carboxamide)propyl)benzamide], the IC90 amounted to 20.3 nM.

For `CCC(=O)N1c2ccccc2[C@H](Nc2ccc(C(=O)NCCCNC(=O)c3ccc(C4=N[C@@H](CC(=O)OCCO)c5nnc(C)n5-c5sc(C)c(C)c54)cc3)cc2)C[C@@H]1C` [Compound 13g, 2-Hydroxyethyl 2-((S)-2,3,9-trimethyl-4-(4-((3-(4-(((2S,4R)-2-methyl-1-propionyl-1,2,3,4-tetrahydroquinolin-4-yl)amino)benzamide)propyl)carbamoyl)phenyl)-6H-thieno[3,2-f][1,2,4]triazolo[4,3-a][1,4]diazepin-6-yl)acetate], the IC90 amounted to 1.7 nM. The same measure, in the same setting: the same measure for `CCC(=O)N1c2ccccc2[C@H](NC2CCC(NC(=O)C#CCNC(=O)c3ccc(C4=NCc5nnc(C)n5-c5sc(C)c(C)c54)cc3)CC2)C[C@@H]1C` (relative stereo) [Compound 14c, N-(4-(((1R,4r)-4-(((2S*,4R*)-2-Methyl-1-propionyl-1,2,3,4-tetrahydroquinolin-4-yl)amino)cyclohexyl)amino)-4-oxobut-2-yn-1-yl)-4-(2,3,9-trimethyl-6H-thieno[3,2-f][1,2,4]triazolo[4,3-a][1,4]diazepin-4-yl)benzamide]: 0.34 nM. As to `CCC(=O)N1c2ccccc2[C@H](Nc2ccc(NC(=O)CCCC(=O)Nc3ccc(OCCN4CCN(C)C(=O)[C@H]4C)cc3)cc2)C[C@@H]1C` [Compound 16e, N^1-(4-(2-((R)-2,4-Dimethyl-3-oxopiperazin-1-yl)ethoxy)phenyl)-N5-(4-(((2S,4R)-2-methyl-1-propionyl-1,2,3,4-tetrahydroquinolin-4-yl)amino)phenyl)glutaramide], under “Homo sapiens”, the concentration for an effect of 90% (IC90) was found to be 5.97 nM.

`CCC(=O)N1c2ccccc2[C@H](Nc2ccc(SCCNC(=O)C3CCC(N[C@@H]4C[C@H](C)N(C(=O)CC)c5ccccc54)CC3)cc2)C[C@@H]1C` (relative stereo) [Compound 8i, (1R,4R)-4-(((2S*,4R*)-2-Methyl-1-propionyl-1,2,3,4-tetrahydroquinolin-4-yl)amino)-N-(2-((4-(((2S,4R)-2-methyl-1-propionyl-1,2,3,4-tetrahydroquinolin-4-yl)amino)phenyl)thio)ethyl)cyclohexane-1-carboxamide]: the concentration for an effect of 90% (IC90) was 2.69 nM. In the case of `CCC(=O)N1c2ccccc2[C@H](Nc2ccc(NC(=O)CNC(=O)Nc3ccc(N[C@@H]4C[C@H](C)N(C(=O)CC)c5ccccc54)cc3)cc2)C[C@@H]1C` (relative stereo) [Compound 6j, N-(4-(((2S*,4R*)-2-Methyl-1-propionyl-1,2,3,4-tetrahydroquinolin-4-yl)amino)phenyl)-2-(3-(4-(((2S*,4R*)-2-methyl-1-propionyl-1,2,3,4-tetrahydroquinolin-4-yl)amino)phenyl)ureido)acetamide], the concentration for an effect of 90% (IC90) (Homo sapiens) worked out at 0.13 nM. In the case of `CCC(=O)N1c2ccccc2[C@H](Nc2ccc(C(=O)NCCCNC(=O)c3ccc(C(O)c4cc(O)cc(-c5c(C)noc5C)c4)cc3)cc2)C[C@@H]1C` (relative stereo) [Compound 1d, 4-{[3-(3,5-Dimethylisoxazol-4-yl)-5-hydroxyphenyl](hydroxy)methyl}-N-[3-(4-{[(2S*,4R*)-2-methyl-1-propionyl-1,2,3,4-tetrahydroquinolin-4-yl]amino}benzamide)propyl]benzamide], the concentration for an effect of 90% (IC90) came to 38 nM. Take `CCC(=O)N1c2ccccc2[C@H](Nc2ccc(NC(=O)CCCC(=O)NC34CC(NCc5cc(O)cc(-c6c(C)noc6C)c5)(C3)C4)cc2)C[C@@H]1C` [Compound 16i, N^1-(3-((3-(3,5-Dimethylisoxazol-4-yl)-5-hydroxybenzyl)amino)bicyclo[1.1.1]pentan-1-yl)-N5-(4-(((2S,4R)-2-methyl-1-propionyl-1,2,3,4-tetrahydroquinolin-4-yl)amino)phenyl)glutaramide]: where the note is “Homo sapiens”, the IC90 came to 7.84 nM. Consider `CCC(=O)N1c2ccccc2[C@@H](Nc2ccc(-n3cc(CNC(=O)C4CCC(N[C@@H]5C[C@H](C)N(C(=O)CC)c6ccccc65)CC4)nn3)cn2)C[C@H]1C` (relative stereo) [Compound 17h, (1R,4S)-4-(((2S,4R)-2-Methyl-1-propionyl-1,2,3,4-tetrahydroquinolin-4-yl)amino)-N-((1-(6-(((2R*,4S*)-2-methyl-1-propionyl-1,2,3,4-tetrahydroquinolin-4-yl)amino)pyridin-3-yl)-1H-1,2,3-triazol-4-yl)methyl)cyclohexane-1-carboxamide], for which the IC90 came out at 0.2 nM. On the same count and under the same terms, the same measure for `CCC(=O)N1c2ccccc2[C@H](Nc2ccc(C(=O)NCCCNC(=O)c3ccc(Cn4c(C(=O)OCCN(C)C)cc5c4CCCC5=O)cc3)cc2)C[C@@H]1C` [Compound 15e, 2-(Dimethylamino)ethyl 1-(4-((3-(4-(((2S,4R)-2-methyl-1-propionyl-1,2,3,4-tetrahydroquinolin-4-yl)amino)benzamide)propyl)carbamoyl)benzyl)-4-oxo-4,5,6,7-tetrahydro-1H-indole-2-carboxylate]: 34 nM. The same measure, in the same setting: the same measure for `CCC(=O)N1c2ccccc2[C@H](NCCCCC(=O)NCc2nnc(-c3ccc(N[C@@H]4C[C@H](C)N(C(=O)CC)c5ccccc54)cc3)o2)C[C@@H]1C` (relative stereo) [Compound 12j, 5-(((2S*,4R*)-2-Methyl-1-propionyl-1,2,3,4-tetrahydroquinolin-4-yl)amino)-N-((5-(4-(((2S,4R)-2-methyl-1-propionyl-1,2,3,4-tetrahydroquinolin-4-yl)amino)phenyl)-1,3,4-oxadiazol-2-yl)methyl)pentane amide]: 17.4 nM. With `CCC(=O)N1c2ccccc2[C@H](Nc2ccc(NC(=O)CNC(=O)O[C@H]3CC[C@H](N[C@@H]4C[C@H](C)N(C(=O)CC)c5ccccc54)CC3)cc2)C[C@@H]1C` (relative stereo) [Compound 7e, (1R,4R)-4-(((2S*,4R*)-2-Methyl-1-propionyl-1,2,3,4-tetrahydroquinolin-4-yl)amino)cyclohexyl (2-((4-(((2S,4R)-2-methyl-1-propionyl-1,2,3,4-tetrahydroquinolin-4-yl)amino)phenyl)amino)-2-oxoethyl)carbamate], the concentration for an effect of 90% (IC90) is 20.4 nM.

Take `CCC(=O)N1c2ccccc2[C@H](Nc2ccc(-c3nnc(CNC(=O)N4CCN(Cc5cc(O)cc(-c6c(C)noc6C)c5)CC4)o3)cc2)C[C@@H]1C` [Compound 16c, 4-(3-(3,5-Dimethylisoxazol-4-yl)-5-hydroxybenzyl)-N-((5-(4-(((2S,4R)-2-methyl-1-propionyl-1,2,3,4-tetrahydroquinolin-4-yl)amino)phenyl)-1,3,4-oxadiazol-2-yl)methyl)piperazine-1-carboxamide]: where the note is “Homo sapiens”, the IC90 worked out at 0.28 nM. Same read-out and setting: the same measure for `CCC(=O)N1c2ccccc2[C@H](Nc2ccc(-c3cnn(CCNC(=O)C4CCN(Cc5cc(O)cc(-c6c(C)noc6C)c5)CC4)c3)cc2)C[C@@H]1C` [Compound 17i, 1-(3-(3,5-Dimethylisoxazol-4-yl)-5-hydroxybenzyl)-N-(2-(4-(4-(((2S,4R)-2-methyl-1-propionyl-1,2,3,4-tetrahydroquinolin-4-yl)amino)phenyl)-1H-pyrazol-1-yl)ethyl)piperidine-4-carboxamide]: 1.45 nM. Take `CCC(=O)N1c2ccccc2[C@H](Nc2ccc(-c3nnc(CNC(=O)c4ccc(OCCN5CCN(C)C(=O)[C@H]5C)cc4)o3)cc2)C[C@@H]1C` [Compound 16b, 4-(2-((R)-2,4-Dimethyl-3-oxopiperazin-1-yl)ethoxy)-N-((5-(4-(((2S,4R)-2-methyl-1-propionyl-1,2,3,4-tetrahydroquinolin-4-yl)amino)phenyl)-1,3,4-oxadiazol-2-yl)methyl)benzamide]: the concentration for an effect of 90% (IC90) (Homo sapiens) came out at 2.05 nM. Turning to `CCC(=O)N1c2ccccc2[C@H](Nc2ccc(NC(=O)C3CN(C(=O)[C@H]4CC[C@H](N[C@@H]5C[C@H](C)N(C(=O)CC)c6ccccc65)CC4)C3)cc2)C[C@@H]1C` [Compound 8c, 1-((1R,4R)-4-(((2S,4R)-2-Methyl-1-propionyl-1,2,3,4-tetrahydroquinolin-4-yl)amino)cyclohexane-1-carbonyl)-N-(4-(((2S,4R)-2-methyl-1-propionyl-1,2,3,4-tetrahydroquinolin-4-yl)amino)phenyl)azetidine-3-carboxamide], the 90% effect concentration (IC90) was determined as 0.26 nM. Same read-out and setting: the same measure for `CCC(=O)N1c2ccccc2[C@H](Nc2ccc(NC(=O)CCCC(=O)Nc3ccc(Cn4c(CC)cc5c4CCCC5=O)cc3)cc2)C[C@@H]1C` [Compound 15i]: 0.88 nM.
